Results: patent publication US20040146498A1, “Pharmaceutical combinations” (priority 2001, published 2004)

Tested on: femoral artery thrombosis
Experiment: Canine femoral artery thrombosis model
Type: in vivo
Conditions: Compound A administered in combination with aspirin (pre-treatment) versus either agent alone; dog; FIG. 1; not statistically significant
Description: Canine Femoral Artery Thrombosis Model—Compound A and Aspirin Compound A as defined above was used in combination with aspirin in a dog model of femoral artery thrombosis to determine whether combination of a P2T-receptor antagonist and pre-treatment with aspirin would have an improved profile when compared to the effect of either agent used alone.

## CCCSc1nc(N[C@@H]2C[C@H]2c2ccc(F)c(F)c2)c2nnn([C@@H]3C[C@H](OCCO)[C@@H](O)[C@H]3O)c2n1 [Compound A]
  anti-thrombotic potency (dose (ID50) required to produce 50% inhibition of thrombosis): trend for an increased anti-thrombotic potency
